Data from ChEMBL document CHEMBL4266045, “Understanding Molecular Drivers of Melanin Binding To Support Rational Design of Small Molecule Ophthalmic Drugs” (J Med Chem, 2018).

What was measured:
[1] = Lipophilicity, log D of compound; conditions: octanol/water
Sepia officinalis = assay: Binding affinity to Sepia officinalis melanin assessed as fraction unbound at 2 uM after 2 hrs by high-throughput screening assay

logD [1] | Fu (Sepia officinalis) [%] | SMILES
1.91 | 0.8 | CCCCN1CCC(CCC(=O)c2cc(Cl)c(N)cc2OC)CC1
0.01 | 34 | COc1cc(N)c(Cl)cc1C(=O)CCC1CCNCC1
2.98 | 0.1 | c1ccc2c(c1)oc1c(Nc3ccncc3)ncnc12
 | 48 | Nc1nc2ccc(OC(F)(F)F)cc2s1
3.77 | 34 | Cc1ccccc1Nc1ncnc2c1oc1ccccc12
2.04 | 0.2 | CN(C)c1nc2ccc(Cl)cc2s1
